Consider 3 compounds from publication PMC6037852, “Design of Diarylheptanoid Derivatives as Dual Inhibitors Against Class IIa Histone Deacetylase and β-amyloid Aggregation” (Frontiers in Pharmacology, 2018).

Structures are written as SMILES. A value given as a limit tells only on which side of the number the result lay.

Data set [1] concerns the target T1, HDAC4 (Homo sapiens, UniProt P56524).
T1 construct: Genes encoding HDAC4 (residues 648–1057) flanked with NdeI and EcoRI sites; made in house; host or cells: E. coli BL21(DE3)
As to the kind of experiment: HDAC fluorometric activity assay, HDAC4. The format is biochemical. The settings on record: Boc-Lys(TFA)-AMC 10 μM; read-out: IC50 Class IIa HDAC4. On the procedure: Proteins were expressed in BL21(DE3) cells by overnight induction with IPTG (1 mM) at 20–25°C and purified from cleared cell lysates by sequential chromatography on Ni-Sepharose 6 fast flow, Mono Q 5/50 GL, and Superdex 75 10/300 GL columns (GE Healthcare). Protein concentrations were quantified with Bradford Reagent (Bio-Rad).
Enzyme, inhibitors and substrate were diluted with HDAC buffer (15 mM Tris-HCl pH 8.1, 0.25 mM EDTA, 250 mM NaCl, 10% v:v glycerol). Briefly, 10 μL diluted HDAC, i.e., HeLa nuclear extract (Enzo), HDAC6 (BPS), HDAC4, HDAC5 (BPS), HDAC7 (BPS) and HDAC9 (BPS), as well as 50 μL of testing compounds at different concentrations were added to each well of a 96-well microtiter plate and pre-incubated at 30°C for 5 min. […] The fluorescence in wells without test compounds (0.1% DMSO, negative control) was set as 100% enzymatic activity and the fluorescence in wells with enzyme eliminated was set as 0% enzymatic activity. The fluorescence ratio of test compounds to negative control was defined as percentage of remaining enzyme activity. The IC50 values were calculated by linear regression of the data. All experiments were performed in triplicate.

Data set [2] deals with SH-SY5Y cells. Kind of data set: Neuroprotection against H2O2-induced neurotoxicity on SH-SY5Y cells, MTT assay. It is filed as cell-based. The following applies: Homo sapiens, compound 40 μM, 500 μM H2O2, 3 h, percentage of control, H2O2 alone 34.6%, read-out: Cell viability after H2O2 exposure. Here is the method: (§1) SH-SY5Y cells were kindly provided by Professor Zhi-Hong Wen (National Sun Yat-sen University) and cultured in DMEM/F12 (Gibco, Grand Island, NY, United States) supplemented with 10% heat-inactivated fetal bovine serum and penicillin (100 U/ml)/streptomycin (100 μg/ml) (Invitrogen, Carlsbad, CA, United States) at 37°C in an atmosphere of 5% CO2.
H2O2-induced neurotoxicity on SH-SY5Y cells was used to evaluate the neuroprotective effect ([Rafatian et al., 2012]; [Omar et al., 2017]). Briefly, a density of 2 × 10^4 SH-SY5Y cells were seeded per well in 96-well plates. After 24 h of incubation, the medium was replaced with serum free medium containing H2O2 at a concentration of 500 μM and treated with different concentrations of compounds (40, 20, and 10 μM). SH-SY5Y cells were also cultured without any treatment as control group and results were indicated by percentage of control. After 3 h, cell viability was performed by MTT assay. The cells were treated with MTT (5 mg/ml in PBS) for 4 h at 37°C. The formazan crystals were generated by viable mitochondrial succinate dehydrogenase from MTT. The supernatant was then aspirated off and the formazan crystals were dissolved with DMSO. Absorbance at 570 nm was determined by Tecan Sunrise microplate reader. The trypan blue exclusion test was also used to evaluate the neuroprotection.

In data set [3] the target is T2, Aβ1-42 (Homo sapiens, UniProt P05067).
T2 construct: Aβ1-42 peptides were purchased from Kelowna International Scientific Inc; purchased Kelowna International Scientific Inc
As to the kind of experiment: Inhibition of Aβ1-42 self-aggregation, thioflavin-T (ThT) fluorescence assay. The format is biochemical. The following applies: 24 h; for IC50: read-out: Beta-Amyloid Aggregation IC50; for inhibition at 10 µM: single concentration of 10 μM, read-out: Beta-Amyloid Aggregation Inhibition (%). Here is the method: Inhibition of Aβ1-42 self-aggregation was measured by thioflavin-T (ThT) fluorescence assay ([Hudson et al., 2009]). Aβ1-42 peptides were purchased from Kelowna International Scientific Inc. To avoid Aβ1-42 self-aggregation before the start of the experiment, Aβ1-42 peptides were dissolved in hexafluoroisopropanol (HFIP) to a concentration of 1 mM. The clear solution containing the dissolved peptide was then aliquoted in micro centrifuge tube. The solution was evaporated under vacuum to remove HFIP to give monomeric Aβ1-42. The monomeric Aβ1-42 was dissolved in NaOH(aq) (60 mM) to give a stock solution (1 mM). The Aβ1-42 stock solution was diluted with 50 mM phosphate buffer (containing 0.15 M NaCl, pH 7.4) before use. Fresh ThT stock solution was prepared by dissolving ThT (Sigma, T3516) in phosphate buffer and filtrated through […] Nylon syringe filter. The ThT stock solution and 400 mM ethylenediaminetetraacetic acid (EDTA) were diluted into the phosphate buffer to generate the working solution as background. A mixture of working solution (ThT final concentration: 10 μM), Aβ1-42 stock solution (Aβ1-42 final concentration: 10 μM) and the tested compounds were incubated on BioShake iQ ThermoMixer (37°C, 700 rpm) for 24 h. Fluorescence was measured by Victor 2X microplate spectrophotometer (excitation λ = 440 nm, emission λ = 486 nm), and adapted for 96-well microtiter plates. The fluorescence intensities were recorded and the percent inhibition due to the presence of the inhibitors were calculated by the following formula: (1 - IFi/IFc) × 100% where IFi and IFc were the fluorescence intensities obtained for Aβ1-42 in the presence and in the absence of inhibitors after subtracting the background, respectively. The IC50 values were calculated by the linear regression model of the data. All experiments were performed in triplicate.

Data set [4] has as its system SH-SY5Y cells. Kind of data set: Cytotoxicity effect on SH-SY5Y cells, alamar blue cell viability assay. The following applies: 40 μM, 24 h. It is filed as cell-based, human. Here is the method: as §1
Cell viability was assessed using the alamar blue (7-hydroxy-10-oxidophenoxazin-10-ium-3-one) cell viability assay in 6 replicates as described previously ([Feng et al., 2016]). Briefly, 5 × 10^3 cells/well were seeded in 96-well flat-bottomed plates; 24 h later, cells were treated with compounds or DMSO as control. After 24 h of incubation, the medium was removed, 100 μL medium containing 10 μL of alamar blue was added, and cells were incubated in the 5% CO2 incubator at 37°C for 4 h. Absorbance at 570 nm was determined by Synergy HT microplate reader. The results were averaged over three different independent experiments. The cell viability was also evaluated by trypan blue exclusion test.
(In general: The colour change of resazurin is a common sign of viable cells or microbes.)

Data set [5] concerns the target HDAC9 (Homo sapiens, UniProt Q9UKV0). As to the kind of experiment: HDAC fluorometric activity assay, HDAC9.

T1 sequence (P56524 648-1057): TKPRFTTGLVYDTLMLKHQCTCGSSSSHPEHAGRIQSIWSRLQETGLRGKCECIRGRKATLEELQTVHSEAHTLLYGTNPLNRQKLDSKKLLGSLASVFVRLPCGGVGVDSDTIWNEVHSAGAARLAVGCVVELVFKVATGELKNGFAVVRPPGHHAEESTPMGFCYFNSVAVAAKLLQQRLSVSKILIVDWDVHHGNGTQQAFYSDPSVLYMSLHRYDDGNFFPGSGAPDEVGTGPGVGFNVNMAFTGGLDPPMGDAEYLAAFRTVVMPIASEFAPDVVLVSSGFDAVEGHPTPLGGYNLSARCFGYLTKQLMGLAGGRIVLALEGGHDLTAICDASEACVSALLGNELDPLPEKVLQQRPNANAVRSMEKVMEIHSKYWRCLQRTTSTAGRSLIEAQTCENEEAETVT
T2 sequence (P05067 672-713 limits assumed): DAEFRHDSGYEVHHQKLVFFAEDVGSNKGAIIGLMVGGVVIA
Sequence of HDAC9 (Q9UKV0 whole entry): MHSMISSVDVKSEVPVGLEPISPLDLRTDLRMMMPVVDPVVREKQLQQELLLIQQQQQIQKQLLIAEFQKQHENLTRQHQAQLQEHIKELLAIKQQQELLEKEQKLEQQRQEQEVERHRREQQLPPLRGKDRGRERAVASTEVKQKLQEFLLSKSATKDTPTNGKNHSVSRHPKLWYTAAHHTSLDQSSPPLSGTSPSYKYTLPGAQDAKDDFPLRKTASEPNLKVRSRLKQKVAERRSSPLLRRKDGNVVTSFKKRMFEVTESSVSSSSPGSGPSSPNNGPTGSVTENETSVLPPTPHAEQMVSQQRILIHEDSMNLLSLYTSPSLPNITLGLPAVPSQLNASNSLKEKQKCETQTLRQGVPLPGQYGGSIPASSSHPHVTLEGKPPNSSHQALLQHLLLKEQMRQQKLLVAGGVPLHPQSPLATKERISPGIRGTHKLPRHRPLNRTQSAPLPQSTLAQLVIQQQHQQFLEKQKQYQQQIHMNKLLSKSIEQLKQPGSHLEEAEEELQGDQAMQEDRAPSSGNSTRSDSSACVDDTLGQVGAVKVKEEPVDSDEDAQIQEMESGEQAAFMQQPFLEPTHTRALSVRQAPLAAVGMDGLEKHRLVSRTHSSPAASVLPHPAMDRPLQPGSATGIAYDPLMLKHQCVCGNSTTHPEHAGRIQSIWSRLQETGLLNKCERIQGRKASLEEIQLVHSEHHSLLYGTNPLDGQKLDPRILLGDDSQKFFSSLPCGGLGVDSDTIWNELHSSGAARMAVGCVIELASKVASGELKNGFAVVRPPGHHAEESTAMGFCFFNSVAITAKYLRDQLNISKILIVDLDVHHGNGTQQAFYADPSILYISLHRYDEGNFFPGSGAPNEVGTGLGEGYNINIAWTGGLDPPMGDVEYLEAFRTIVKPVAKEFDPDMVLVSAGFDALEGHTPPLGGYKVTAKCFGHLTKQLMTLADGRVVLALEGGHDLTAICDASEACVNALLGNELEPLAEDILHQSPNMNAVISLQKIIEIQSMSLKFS

A word on the IC50: it is the concentration at which inhibition is half-maximal. The term viability denotes a per cent measure of how many cells are alive, often set against a control. Usually inhibition stands for the drop in the measured response relative to a control, in per cent. As to `O=C(/C=C/c1cc(O)c(O)c(O)c1)CCCCc1ccccc1` [Compound 4j], the IC50 in data set [1] was over 40 µM; in data set [3] it was 3.6 ± 1 µM; in data set [5], 15.4 ± 1.8 µM. Also, the viability at 40 µM in data set [2] is 88.3%. For the same compound, the inhibition at 10 µM in data set [3] was 78.7 ± 6.2%. The “Cytotoxicity to SH-SY5Y cells” value in data set [4] was “did not show significant cytotoxicity”.

As for `O=C(CCCCc1ccccc1)CCc1ccc(O)c(O)c1` [Compound 5c], the IC50 in data set [1] is 18.1 ± 0.8 µM; in data set [3], 5.8 ± 0.2 µM; in data set [5], 5.3 ± 0.3 µM. In addition, in data set [2], the viability at 40 µM amounted to 61.3%. In addition, in data set [3], the inhibition at 10 µM turned out to be 67.8 ± 3.4%. Also, the “Cytotoxicity to SH-SY5Y cells” value in data set [4] is “did not show significant cytotoxicity”.

As to `O=C(CCCCc1ccccc1)CCc1cccc(O)c1O` [Compound 5e], the results for the IC50 in data set [1], in data set [3] and in data set [5] were 35.9 ± 0.1 µM, 6 ± 0.9 µM and 9.3 ± 0.8 µM, respectively. Further, the viability at 40 µM in data set [2] stood at 58.8%. The inhibition at 10 µM in data set [3] is 65.9 ± 0.2%. Further, the “Cytotoxicity to SH-SY5Y cells” value in data set [4] is on record as “did not show significant cytotoxicity”.
